Source: US20250197864A1, “LNCRNA TRANSCRIPTS IN MELANOMAGENESIS” (The Regents of the University of California, priority 2021, published 2025)

Legend:
[1] = system: AV5 primary melanoma cell line; assay: Cell viability assay (ATP quantitation); type: cell-based, human; settings: 50 nM, 5 days (120 hrs), vs non-targeting control
Protocol: (§1) EsiRNA, siRNA and ASO GapmeRs were transfected in a final concentration of 50 nM unless mentioned otherwise and the transfection reagent Lipofectamine 3000 (2 ul/ml) was added according to the manufacturer's instructions.
(§2) Dependent on cell doubling time, 0.7-2×10^^3 cells were seeded in 96 well plates. 1 day after seeding cells were incubated in media with oligonucleotide concentration and/or MEKi and transfection reagent. 3 (synergy experiments) or 5 (solely ASO) days after transfection Total luminescence was measured on the SynergyHT plate reader (BioTek) using Gen5 software.

[2] = system: WM3211 melanoma cell line; assay: Cell viability assay (ATP quantitation); type: cell-based, human; settings: 50 nM, 5 days (120 hrs), vs non-targeting control
Protocol: as §1, §2

D04 melanoma cell line = assay: Cell viability assay (ATP quantitation); type: cell-based, human; settings: 50 nM, 5 days (120 hrs), vs non-targeting control
Protocol: as §1, §2

[3] = system: WM3629 melanoma cell line; assay: Cell viability assay (ATP quantitation); type: cell-based, human; settings: 50 nM, 5 days (120 hrs), vs non-targeting control
Protocol: as §1, §2

[4] = system: Sk-Mel-28 melanoma cell line; assay: Cell viability assay (ATP quantitation); type: cell-based, human; settings: 50 nM, 5 days (120 hrs), vs non-targeting control
Protocol: as §1, §2

[5] = system: Sk-Mel-2 melanoma cell line; assay: Cell viability assay (ATP quantitation); type: cell-based, human; settings: 50 nM, 5 days (120 hrs), vs non-targeting control
Protocol: as §1, §2

[6] = system: Hs852.T primary melanoma cell line; assay: Cell viability assay (ATP quantitation); type: cell-based, human; settings: 50 nM, 5 days (120 hrs), vs non-targeting control
Protocol: as §1, §2

VMM39 melanoma cell line = assay: Cell viability assay (ATP quantitation); type: cell-based, human; settings: 50 nM, 5 days (120 hrs), vs non-targeting control
Protocol: as §1, §2

[7] = system: WM1366 melanoma cell line; assay: Cell viability assay (ATP quantitation); type: cell-based, human; settings: 50 nM, 5 days (120 hrs), vs non-targeting control
Protocol: as §1, §2

MM415 melanoma cell line = assay: Cell viability assay (ATP quantitation); type: cell-based, human; settings: 50 nM, 5 days (120 hrs), vs non-targeting control
Protocol: as §1, §2

[8] = system: WM3060 melanoma cell line; assay: Cell viability assay (ATP quantitation); type: cell-based; settings: 50 nM, 5 days, vs non-targeting control
Protocol: as §1, §2

[9] = system: H82 lung cancer cell line; assay: Cell viability assay (ATP quantitation); type: cell-based; settings: 50 nM, 5 days, vs non-targeting control
Protocol: as §1, §2

[10] = system: SW1271 lung cancer cell line; assay: Cell viability assay (ATP quantitation); type: cell-based; settings: 50 nM, 5 days, vs non-targeting control
Protocol: as §1, §2

[11] = system: Sk-N-AS Neuroblastoma cell line; assay: Cell viability assay (ATP quantitation); type: cell-based; settings: 50 nM, 5 days, vs non-targeting control
Protocol: as §1, §2

[12] = system: U87-MG Glioblastoma cell line; assay: Cell viability assay (ATP quantitation); type: cell-based; settings: 50 nM, 5 days, vs non-targeting control
Protocol: as §1, §2

[13] = system: A-172 Glioblastoma cell line; assay: Cell viability assay (ATP quantitation); type: cell-based; settings: 50 nM, 5 days, vs non-targeting control
Protocol: as §1, §2

[14] = system: T98G Glioblastoma cell line; assay: Cell viability assay (ATP quantitation); type: cell-based; settings: 50 nM, 5 days, vs non-targeting control
Protocol: as §1, §2

[15] = system: L363 multiple myeloma cell line; assay: Cell viability assay (ATP quantitation); type: cell-based; settings: 50 nM, 5 days, vs non-targeting control
Protocol: as §1, §2

[16] = system: H929 multiple myeloma cell line; assay: Cell viability assay (ATP quantitation); type: cell-based; settings: 50 nM, 5 days, vs non-targeting control
Protocol: as §1, §2

MM485 melanoma cell line = assay: Cell viability assay (ATP quantitation); type: cell-based; settings: 50 nM, 5 days, vs non-targeting control
Protocol: as §1, §2

[17] = system: SW480 colon carcinoma cell line; assay: Cell viability assay (ATP quantitation); type: cell-based; settings: 50 nM, 5 days, vs non-targeting control
Protocol: as §1, §2

[18] = system: Sk-Mel-5 melanoma cell line; assay: Cell viability assay (ATP quantitation); type: cell-based; settings: 50 nM, 5 days, vs non-targeting control
Protocol: as §1, §2

[19] = system: U138-MG Glioblastoma cell line; assay: Cell viability assay (ATP quantitation); type: cell-based; settings: 50 nM, 5 days, vs non-targeting control
Protocol: as §1, §2

[20] = system: U20S osteosarcoma cell line; assay: Cell viability assay (ATP quantitation); type: cell-based; settings: 50 nM, 5 days, vs non-targeting control
Protocol: as §1, §2

[21] = system: H1299 lung cancer cell line; assay: Cell viability assay (ATP quantitation); type: cell-based; settings: 50 nM, 5 days, vs non-targeting control
Protocol: as §1, §2

[22] = system: HCT116 colon carcinoma cell line; assay: Cell viability assay (ATP quantitation); type: cell-based; settings: 50 nM, 5 days, vs non-targeting control
Protocol: as §1, §2

[23] = system: WM3629RM trametinib resistant melanoma cell line; assay: Cell viability assay (ATP quantitation); type: cell-based; settings: 50 nM, 5 days, vs non-targeting control
Description: (§3) Human melanoma cell line VMM39 was purchased from American Type Culture Collection (ATCC). Human melanoma cell lines D04, MM415, WM1366, WM3629, WM3211, Sk-Mel-2 and Sk-Mel-28 were a generous gift from Boris Bastian at the University of California, San Francisco. Primary human melanoma cell line Hs852.T was purchased from the Cell Culture Core Facility (CCCF) at the University of California, San Francisco. Primary human melanoma cell line AV5 was obtained from metastasis of a melanoma patient. All experimental protocols were approved by UCSF Human Research Protection Program Institutional Review Board (IRB #12-0948), all patients signed informed consent, and methods were carried out in accordance with relevant guidelines and regulations. Resistant cell lines DO4RM, MM415RM, Sk-Mel-2RM and WM3629RM were established as previously described. [Sanlorenzo, M. et al., The lincRNA MIRAT binds to IQGAPI and modulates the MAPK pathway in NRAS mutant melanoma. Sci Rep 8, 10902 (2018).] Primary human melanocytic cell lines (PHM) from infant foreskin of five healthy donors were available in our cell repository and pooled. Melanoma cell lines were maintained in RPMI 1640 media supplemented with 10% (vol/vol) heat inactivated fetal bovine serum. Melanocytes were maintained in M254 medium with HMGS supplements (1× final solution). All cell lines were incubated at 37° C. under 5% CO2.
as §1, §2

[24] = system: D04RM trametinib resistant melanoma cell line; assay: Cell viability assay (ATP quantitation); type: cell-based; settings: 50 nM, 5 days, vs non-targeting control
Description: as §3, §1, §2

[25] = system: MM415RM trametinib resistant melanoma cell line; assay: Cell viability assay (ATP quantitation); type: cell-based; settings: 50 nM, 5 days, vs non-targeting control
Description: as §3, §1, §2

[26] = system: Sk-Mel-2-RM trametinib resistant melanoma cell line; assay: Cell viability assay (ATP quantitation); type: cell-based; settings: 50 nM, 5 days, vs non-targeting control
Description: as §3, §1, §2

Caspase 3+7 = assay: Caspase Glo 3/7 assay in D04 cell line; type: cell-based, human; settings: ASO 50 nM, 1 day, vs control ASOs
Protocol: Dependent on cell doubling time, 2-3×10^^3 cells were seeded in 96 well plates. 1 day after seeding cells were incubated in media with 50 nM oligonucleotide concentration and transfection reagent. 1 day after transfection Total luminescence was measured on the SynergyHT plate reader (BioTek) using Gen5 software. Experiments were performed in quadruplicates.

[27] = system: AC004540.4 (TRASH) in D04 cells; assay: MEK-inhibitor-induced upregulation, RT-qPCR; type: cell-based, human; settings: 72 hours, vs DMSO, normalized to GAPDH
Protocol: (§4) TRIzol, Phenol:chloroform:isoamyl alcohol (125:24:1) or NucleoSpin RNA kit (TaKaRa) was used for extracting Total RNA from cells and tissues according to the manufacturer's instructions. Total RNA was quantified by NanoDrop ND-1000 (Thermo Scientific) or Quibit 4 (Thermo Fisher). 50 ng or RNA was reverse transcribed using the cDNA synthesis and gDNA removal QuantiTect Reverse Transcription Kit. Real time PCR was performed using the iTaq Universal SYBR Green Supermix, 10 ng (20 ng for RIP Assay) of cDNA and on a QuantStudio™ 5 Real-Time PCR System or a 7500 fast real time PCR system. Relative gene expression was calculated using the comparative Ct method, normalized to GAPDH or β-actin. Primer sequences are listed in Supplementary Table 1.
(§5) Cells were either treated with trametinib (MEKi) or DMSO (control). Treatment period was 72 hours. CT-values were normalized to GAPDH, error bars represent standard deviation. All experiments were performed in triplicates (n=3/group). (FIG. 5b)

[28] = system: AC004540.4 (TRASH) in MM415 cells; assay: MEK-inhibitor-induced upregulation, RT-qPCR; type: cell-based, human; settings: 72 hours, vs DMSO
Protocol: as §4, §5

Row | Molecule | cell viability decrease [2] | cell viability decrease (D04 melanoma cell line) | cell viability decrease [3] | cell viability decrease [4] | cell viability decrease [5] | cell viability decrease [6] | cell viability decrease (VMM39 melanoma cell line) | cell viability decrease [7] | cell viability decrease (MM415 melanoma cell line) | cell viability decrease [8] | cell viability decrease [10] | cell viability decrease [11] | cell viability decrease [12] | cell viability decrease [13] | cell viability decrease [14] | cell viability decrease [15] | cell viability decrease [16] | cell viability decrease (MM485 melanoma cell line) | cell viability decrease [17] | cell viability decrease [18] | other results
1 | ATCATCTGGATTAGTG (chemistry not given here) [SEQ ID NO: 14, Antisense oligonucleotide targeting BX470102.3-008] | significant cell viability decrease | significant cell viability decrease | significant cell viability decrease | significant cell viability decrease | significant cell viability decrease | significant cell viability decrease | significant cell viability decrease | significant cell viability decrease | significant cell viability decrease | significant cell viability decrease | significant cell viability decrease | significant cell viability decrease | significant cell viability decrease | significant cell viability decrease | significant cell viability decrease | significant cell viability decrease | significant cell viability decrease | significant cell viability decrease | significant cell viability decrease | significant cell viability decrease | cell viability decrease [1]: significant cell viability decrease; cell viability decrease [9]: significant cell viability decrease; cell viability decrease [19]: significant cell viability decrease; cell viability decrease [20]: significant cell viability decrease; cell viability decrease [21]: significant cell viability decrease; cell viability decrease [22]: significant cell viability decrease; cell viability decrease [23]: significant cell viability decrease; cell viability decrease [24]: significant cell viability decrease; cell viability decrease [25]: significant cell viability decrease; cell viability decrease [26]: significant cell viability decrease
2 | GACCGTAGTTAGAAGG (GapmeR, chemically modified, pattern not given here) [SEQ ID NO: 48, GapmeR antisense oligonucleotide targeting HNRNPA2/B1] | – | significant cell viability decrease | – | – | – | – | – | – | – | – | – | – | – | – | – | – | – | – | – | – | cell viability decrease (D04 melanoma cell line; listed as hnRNPA2/B1i): significant cell viability decrease; Caspase-3 &-7 activity increase (Caspase 3+7): 1.7 fold
3 | GATCATTTAATTTGAC (QIAGEN GapmeR, modification pattern not given here) [SEQ ID NO: 18, Antisense oligonucleotide targeting RP11-7011.3-001, 002 and 003] | significant cell viability decrease | significant cell viability decrease | significant cell viability decrease | significant cell viability decrease | significant cell viability decrease | significant cell viability decrease | significant cell viability decrease | significant cell viability decrease | significant cell viability decrease | significant cell viability decrease | significant cell viability decrease | significant cell viability decrease | significant cell viability decrease | significant cell viability decrease | significant cell viability decrease | significant cell viability decrease | significant cell viability decrease | significant cell viability decrease | significant cell viability decrease | significant cell viability decrease | cell viability decrease [19]: significant cell viability decrease; cell viability decrease [20]: significant cell viability decrease; cell viability decrease [21]: significant cell viability decrease; cell viability decrease [22]: significant cell viability decrease; cell viability decrease [23]: significant cell viability decrease; cell viability decrease [24]: significant cell viability decrease; cell viability decrease [25]: significant cell viability decrease; cell viability decrease [26]: significant cell viability decrease
4 | CC(=O)Nc1cccc(-n2c(=O)n(C3CC3)c(=O)c3c(Nc4ccc(I)cc4F)n(C)c(=O)c(C)c32)c1 [trametinib] | – | – | – | – | – | – | – | – | – | – | – | – | – | – | – | – | – | – | – | – | AC004540.4 (TRASH) upregulation ([27]; 20 nM MEKi): 3.2 fold; AC004540.4 (TRASH) enrichment ([27]; 40 nM MEKi): 5.4 fold; increase of AC004540.4 (TRASH)-expression ([28]; 20 nM MEKi): 0.31 fold; increase of AC004540.4 (TRASH)-expression ([28]; second MEKi concentration (not given)): 0.36 fold
